Data on five molecules can be found in patent US11229683B2, “Hematopoietic growth factor proteins and analogs thereof and angiotensin converting enzyme inhibitors for treatment of radiation exposure” (priority 2015, dated 2022).

One experiment has as its target T1, plasma ACE activity (Mus musculus, UniProt P09470).
T1 construct: host or cells: plasma of perindopril-treated mice (endogenous enzyme)
T1 sequence (P09470 35-1237 limits assumed): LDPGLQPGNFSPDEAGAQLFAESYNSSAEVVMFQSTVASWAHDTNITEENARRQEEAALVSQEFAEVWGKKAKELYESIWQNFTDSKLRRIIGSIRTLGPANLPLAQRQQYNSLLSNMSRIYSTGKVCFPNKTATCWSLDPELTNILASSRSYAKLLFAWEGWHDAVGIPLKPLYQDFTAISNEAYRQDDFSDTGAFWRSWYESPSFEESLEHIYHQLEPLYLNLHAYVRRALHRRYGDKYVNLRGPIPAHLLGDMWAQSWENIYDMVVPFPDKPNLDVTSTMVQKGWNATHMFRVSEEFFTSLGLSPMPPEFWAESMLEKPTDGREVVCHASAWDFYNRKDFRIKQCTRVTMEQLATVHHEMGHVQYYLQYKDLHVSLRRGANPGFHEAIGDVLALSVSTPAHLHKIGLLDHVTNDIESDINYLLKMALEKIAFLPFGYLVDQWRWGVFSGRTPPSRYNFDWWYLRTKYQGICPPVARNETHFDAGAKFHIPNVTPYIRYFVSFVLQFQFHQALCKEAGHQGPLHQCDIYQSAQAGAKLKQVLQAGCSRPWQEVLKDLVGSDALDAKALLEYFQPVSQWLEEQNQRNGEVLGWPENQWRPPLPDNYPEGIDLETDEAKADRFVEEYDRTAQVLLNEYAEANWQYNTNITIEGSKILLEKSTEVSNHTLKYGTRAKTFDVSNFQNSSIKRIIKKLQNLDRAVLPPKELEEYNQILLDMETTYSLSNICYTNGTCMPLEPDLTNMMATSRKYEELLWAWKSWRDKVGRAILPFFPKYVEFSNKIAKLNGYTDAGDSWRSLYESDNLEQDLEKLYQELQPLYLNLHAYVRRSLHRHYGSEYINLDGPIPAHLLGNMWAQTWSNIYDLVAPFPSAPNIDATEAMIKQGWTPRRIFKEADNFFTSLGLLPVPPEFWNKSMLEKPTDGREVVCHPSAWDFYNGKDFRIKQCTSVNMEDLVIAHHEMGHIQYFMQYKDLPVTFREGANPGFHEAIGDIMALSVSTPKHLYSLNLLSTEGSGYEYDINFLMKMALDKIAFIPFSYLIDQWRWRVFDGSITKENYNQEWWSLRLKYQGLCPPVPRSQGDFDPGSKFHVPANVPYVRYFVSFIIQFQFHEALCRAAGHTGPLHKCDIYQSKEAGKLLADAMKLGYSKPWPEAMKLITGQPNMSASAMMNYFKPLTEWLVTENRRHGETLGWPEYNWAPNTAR
The settings on record: all 3 doses: 10, 30, or 90 mg/kg sc twice per day; cited from earlier work.

The next experiment has as its system 8.3 Gy irradiated mice. The settings on record: cited from earlier work; for 48-day survival vs water: 8.3 Gy.
The next experiment deals with 7 Gy-irradiated rats. The settings on record: 7 Gy rats; captopril 0.3 g/L in drinking water from day −7 to Day 0; cited from earlier work.
The next experiment deals with 8.25 Gy-irradiated mice. The settings on record: cited from earlier work.
The next experiment deals with 7.5 Gy-irradiated mice. The settings on record: cited from earlier work.
For the next experiment, the system named is lethally irradiated rats. The settings on record: 13 Gy leg-out TBI, TC sc day 1, Lisinopril in drinking water Day 7 to Day 150, 12 rats/group.
Experiment [1] relates to irradiated rats. Put plainly: Rat 13 Gy leg-out TBI model, transthoracic echocardiography on day 50, Example 8. The experiment is classed as in vivo. Here is the method: Non-irradiated rats (0 Gy) served as controls. On day 50, the rats were anesthetized with isoflurane (2%) and transthoracic echocardiography was performed. Measurements were obtained by an investigator who was blinded to the treatment groups. Animals were studied in the left lateral decubitus position and data was recorded with a Vivid 7 echocardiographic system (General Electric, Waukesha, Wis.).

In experiment [2] the test system is irradiated rats. Briefly: Rat 13 Gy leg-out TBI model, renal injury by blood urea nitrogen (BUN). In kind it is in vivo. The settings on record: surviving animals, TC day 1, Lisinopril Day 7 to Day 150. On the procedure: Euthanized animals are classified as non-survivors.
Blood urea nitrogen (BUN) measurements were made as a separate measure of kidney damage in surviving animals on Days 90, 120 and 150 (Table 8). BUN measurements are a commonly used measure of kidney function, with higher BUN numbers indicating greater kidney damage. Normal rat BUN measurements for non-irradiated rats are in the 17-22 mg/dL range. Rats were euthanized if BUN measurements were at or above 120 mg/dL.

Another experiment has as its system LD65/30 irradiated mice. Briefly: Mouse ARS survival assay, LD65/30 (872 cGy), Example 10. In kind it is in vivo. The settings on record: single sc injection 24 h post-irradiation. Here is the method: The efficacy of three individual HGFs and all possible combinations of the 3 proteins to increase 30 day survival of lethally irradiated mice was tested at an LD65/30 radiation dose (a dose of radiation expected to cause death to 65% of an exposed population within 30 days). This experiment was performed as described in Example 1 except that the radiation dose used was 872 cGy and there were 20 mice per test group (10 males/10 females). The three HGFs were the same ones used in Example 1.

Another experiment relates to LD95/30 irradiated mice. Put plainly: Mouse ARS survival assay, LD95/30 (927 cGy), Example 1. The experiment is classed as in vivo. The settings on record: LD95/30 (927 cGy) TBI, single sc injection 24 h post-irradiation; for % 30-d survival: PEG IL-11 0.3 mg/kg, PEG-G-CSF 1 mg/kg, PEG muGM-CSF 1 mg/kg, 40 mice/group.
Experiment [3] has as its system LD65/30 irradiated one year old mice. Put plainly: Mouse ARS survival assay in one year old mice, 10 Gy (LD65/30), Example 4. The experiment is classed as in vivo. The settings on record: single sc injection 24 h post-TBI. The text has this: One year old mice are a model for geriatric humans, which often respond differently to radiation exposure and drugs. One year old mice were exposed to different doses of radiation to construct a radiation dose response curve. […] The LD50/30 for one year old mice was 959 cGy, compared to 853 cGy for 12 week old mice. […] Other study details were as described in Example 1 and in Plett et al. (Plett, P A, et al. (2012) Establishing a murine model of the Hematopoietic Syndrome of the Acute Radiation Syndrome. Health Physics 103: 343-355; Plett, P. A., et al. (2014) PEGylated G-CSF (BBT-015), GM-CSF (BBT-007), and IL-11 (BBT-059) analogs enhance survival and hematopoietic cell recovery in a mouse model of the Hematopoietic Syndrome of the Acute Radiation Syndrome. Health Physics Journal 106: 7-20). Mice received one sc injection of the individual test proteins or all possible combinations of the test proteins 24+4/−0 hours post-TBI. Doses of the drugs administered were 1 mg/kg for PEG-G-CSF, 1 mg/kg for PEG-murine GM-CSF, and 0.3 mg/kg for PEG-IL-11.

A further experiment has as its system irradiated mice. Put plainly: Mouse ARS survival assay, PEG-muGM-CSF, 853 or 872 cGy, Example 5. In kind it is in vivo. The settings on record: for % 30-d survival: listed as PEG-muGM-CSF, 1 mg/kg; for # survivors/total mice: 30 days. On the procedure:
At the higher 872 cGy radiation dose, 70% of mice treated once with PEG-muGM-CSF at 24 h post-TBI were still alive at 30 days, compared to 10% of vehicle-treated mice.

The test system of a further experiment is lethally irradiated mice. The settings on record: single sc injection; cited from earlier work.
The mark [4] stands for this setting: sc 30 mg/kg twice per day for 4 days starting 48 hours before irradiation.
The mark [5] stands for this setting: Lisinopril Day 7 to Day 50, mean ± SD, 8 rats.
[6] abbreviates: 853 cGy, 1 mg/kg single sc at 24 h post-TBI.
The mark [7] stands for this setting: 872 cGy, 1 mg/kg single sc at 24 h post-TBI.

Substitutions are numbered along the chain they refer to. Names may count otherwise. Read-outs that look alike come from different tables or passages of the source. Marks after values point to notes of the source that are not given here.

Procedure for LD95/30 irradiated mice: The efficacy of three individual HGFs and all possible combinations of the 3 proteins to increase 30 day survival of lethally irradiated mice was tested at an LD95/30 radiation dose (a dose of radiation expected to cause death to 95% of an exposed population within 30 days). […] Male and female mice (Mus musculus, C57BL/6 strain), aged 10-12 weeks upon study initiation, were used for these studies. There were 40 animals per treatment group, 50% males and 50% females. A dose of radiation equal to the LD95/30 was delivered as a single uniform total body dose (TBD) of gamma radiation from a ^137Cs radiation source (GammaCell 40; Nordion International, Kanata, Ontario, Canada) at an exposure rate of 98.575-100.3±5.01 cGy/minute. Pilot studies determined the LD95/30 dose of radiation to be 927 cGy. […] Each group of mice irradiated together in the same irradiation pie was roughly divided among all groups to ensure that each group received the same irradiation exposure conditions. After irradiation mice were randomized to one of the Test Article or Control Article groups. Mice were provided acidified water (pH 2.0-3.0) in bottles and fed certified commercial extruded laboratory animal chow (HARLAN 2018SXC) throughout the study. On day 4 post-exposure, mice were provided acidified autoclaved water in bottles and also in wetted chow (HARLAN 2018SXC) in a petri dish set in the bottom of the cage. Mice were monitored for survival once per day until signs of early euthanasia appear, then twice per day until day 30. Mice meeting predetermined euthanasia criteria were euthanized.
Complete Blood Cell Counts (CBCs) with differential and peripheral smears were performed at baseline (pre-irradiation) and on days 10, 20, 25, and 30 post-TBI. Two randomly selected mice/group in different cages were bled on day −3 to day −1 prior to TBI for a total of 12 baseline CBCs. Four randomly selected mice/group were bled on days 10, 20, 25, and 30 post-TBI. When possible, the same number of males and females in each group and in separate cages were selected for bleeding. […]
Source text for lethally irradiated rats: Female WAG/RijCmcr rats were irradiated with 13 Gy at 12 weeks of age when they weighed ˜150-170 gm. Briefly, animals were immobilized in a plexiglass jig to avoid anesthetic. One hind leg was shielded with a one-quarter inch thick lead block. Shielding one leg from radiation exposure is sufficient to prevent death from hematopoietic failure during the following 40 days. […] The x-ray system was operated at 320 kVp and 13 mAs with a half value layer of 1.4 mm Cu. During the irradiation, each rat was confined in a separate chamber in a plastic jig, which allowed irradiation of 2 rats simultaneously. The chambers were placed on a plane perpendicular to the beam direction with distance from source to the midline of rats to be set at 33.5 cm. Collimator jaws were used to define a radiation field large enough to cover both chambers with adequate margin (at least 2 cm). Irradiated rats were given supportive care between days 2 to 14 post-TBI to mitigate acute gastrointestinal injury. This supportive care consisted of sc injections of saline (40 mL/kg/day) from days 3 to 7 post-TBI and the antibiotic enrofloxacin (10 mg/kg/day), given orally in the drinking water from days 2 to 14 post-TBI.
This study comprised four test groups, each consisting of 12 rats (Table 7). Rats received a single sc injection of vehicle solution (10 mM sodium phosphate, 4% mannitol, 1% sucrose pH 6.2) or an HGF triple combination (TC) at 24+4/−0 hr post-irradiation. […] Morbidity and survival of the animals were measured over time. Rats were euthanized if their body condition reached IACUC criteria for euthanasia or if their blood urea nitrogen (BUN) was measured at or above 120 mg/mL, which is an indicator if severe kidney damage. Euthanized animals are classified as non-survivors. Death prior to day 40 in this model typically occurs as a result of hematopoietic failure (H-ARS) or gastrointestinal injury (GI-ARS). Death between days 40 and 90 typically occurs as a result of lung damage, particularly pneumonitis. Death between days 90 and 150 typically occurs as a result of kidney damage (nephropathy). Morbidity at Day 40, 90 and 150 were chosen as representative times for death due to H-ARS, lung damage, and a combination of lung damage and kidney damage, respectively.

Take `CCC[C@H](N[C@@H](C)C(=O)N1[C@H](C(=O)O)C[C@@H]2CCCC[C@@H]21)C(=O)OCC` [perindopril]: the “inhibition of plasma ACE activity” value on plasma ACE activity is listed as 100%. The “48-day survival vs water” value with 8.3 Gy irradiated mice (sc 10 mg/kg twice per day for 4 days starting 48 hours before irradiation) was “did not significantly improve”; in the experiment on 8.3 Gy irradiated mice (setting [4]), “did significantly improve survival”; in the experiment on 8.3 Gy irradiated mice (sc 90 mg/kg twice per day for 4 days starting 48 hours before irradiation), “did significantly improve survival”. In the experiment on 8.3 Gy irradiated mice (setting [4]), the “30-day survival versus water” value is “improved 30-day survival”.

Turning to `C[C@H](CS)C(=O)N1CCC[C@H]1C(=O)O` [Captopril], the 30-day survival with 7 Gy-irradiated rats is 24%; in the experiment on 8.25 Gy-irradiated mice (captopril 0.55 g/L in drinking water from day 1 to day 30 post-TBI, genestein (if given) 200 mg/kg sc 24 h pre-TBI) it was 45%; with 8.25 Gy-irradiated mice (captopril from day 0 (1 h post-TBI) to day 30, genestein (if given) 200 mg/kg sc 24 h pre-TBI), 55%; with 7.5 Gy-irradiated mice (captopril 0.55 g/L in drinking water from day −7 until Day 0), 0%; with 7.5 Gy-irradiated mice (captopril from day 0 (1 hour post-TBI) until Day 30 post-TBI) it was 100%; in the experiment with 7.5 Gy-irradiated mice (captopril from day 1 (24 h) post-TBI until Day 7 post-TBI) it was 85%. Besides, the 30-day survival in the experiment on 7.5 Gy-irradiated mice (captopril from day −7 prior to TBI until Day 30 post-TBI) is listed as 15%.

In the case of `NCCCC[C@H](N[C@@H](CCc1ccccc1)C(=O)O)C(=O)N1CCC[C@H]1C(=O)O` [Lisinopril], in the experiment on lethally irradiated rats, the “Survival (%) Day 40” value is listed as 100% and the “Survival (%) Day 150” value came out at 92%. In addition, the “Survival (%) Day 90” value in the experiment with lethally irradiated rats (listed as Vehicle + Lisinopril) was found to be 92%. Also, the “Survival (%) Day 90” value in the experiment with lethally irradiated rats (listed as Vehicle plus Lisinopril) was found to be 100%. In the experiment with irradiated rats [1] (setting [5]), the “Cardiac Output” value is 170.1 ± 36.4 mL/min, the “End Systolic Volume” value turned out to be 0.125 ± 0.04 mL, the “End-Diastolic Volume” value is reported as 0.585 ± 0.08 mL and the “Left Ventricle Internal Diameter systole” value was found to be 0.364 ± 0.03 cm. In the experiment with irradiated rats [1] (setting [5]), the “Left Ventricle Mass” value is 0.919 ± 0.04 grams, the “Left Ventricle Posterior Wall diastole” value is recorded as 0.109 ± 0.01 cm, the “Left Ventricular Internal Dimension (diastole)” value amounted to 0.57 ± 0.17 cm and the Stroke volume was found to be 0.460 ± 0.06 mL. For the same molecule, in the experiment on irradiated rats [1] (Lisinopril on days 7 to 50), the “radiation-induced changes to heart parameters” value is recorded as “prevented or reduced radiation-induced changes”. Further, in the experiment on irradiated rats [2], the “BUN Day 120, median (20th-80th percentile)” value is listed as 23 (20-24) * mg/dL and the “BUN Day 150, median (20th-80th percentile)” value was 25 (22-27) ** mg/dL.

B1: PEG GM-CSF: the murine BBT-007 GM-CSF homolog T3C modified with a 40 kDa-PEG (protein, UniProt P01587 18-141, looked up, variant T3C)
Granulocyte-macrophage …: APCRSPITVTRPWKHVEAIKEALNLLDDMPVTLNEEVEVVSNEFSFKKLTCVQTRLKIFEQGLRGNFTKLKGALNMTASYYQTYCPPTPETDCETQVTTYADFIDSLKTFLTDIPFECKKPGQK
modifications: 40 kDa PEG
notes: the murine BBT-007 GM-CSF homolog T3C modified with a 40 kDa-PEG
Regarding B1, the “# survivors/total mice” value is given as 14/20 with LD65/30 irradiated mice (30 days); 13/40 with LD95/30 irradiated mice (30 days); 11/20 in [3] (30 days); 17/20 in the experiment on irradiated mice (setting [6]); 14/20 with irradiated mice (setting [7]). The “% 30-d survival” value in the experiment with LD65/30 irradiated mice (PEG IL-11 0.3 mg/kg, PEG-G-CSF 1 mg/kg, PEG muGM-CSF 1 mg/kg, 20 mice/group) was 70%; in the experiment on LD95/30 irradiated mice, 32.5%; in the experiment on LD95/30 irradiated mice (listed as PEG-GM-CSF), 33%; in experiment [3] (PEG IL-11 0.3 mg/kg, PEG-G-CSF 1 mg/kg, PEG muGM-CSF 1 mg/kg), 55%; in the experiment with irradiated mice (setting [6]), 85%; in the experiment on irradiated mice (setting [7]) it was 70%. Moreover, the “% of mice that survived 30 days, pooled data from the two radiation doses” value in the experiment on irradiated mice (853 and 872 cGy pooled, 1 mg/kg single sc at 24 h post-TBI) was determined as 77.5%. For the same molecule, the “hematopoietic recovery (CBC) vs vehicle” value in the experiment with irradiated mice (day 20 post-TBI, 853 and 872 cGy) is “accelerated hematopoietic recovery”.

B2: muGM-CSF: non-long-acting murine GM-CSF (protein, UniProt P01587 18-141, looked up)
Granulocyte-macrophage …: B1 Granulocyte-macrophage … with C3T
Consider B2, for which the “30-day survival of lethally irradiated mice” value in the experiment on lethally irradiated mice is recorded as “does not improve 30-day survival”.
